Results as given in patent US20260191853A1, “METHOD OF TREATING DRUG-INDUCED BRADYARRHYTHMIA” (OSAKA UNIVERSITY, priority 2022, published 2026).
“Also recorded” adds a separate entry of the source.

How the values were obtained:
[1] = biological target: T1, KACh channel (Homo sapiens, UniProt P48544+P48549); test: KACh channel inhibitory action
T1 sequence (P48549 1-501): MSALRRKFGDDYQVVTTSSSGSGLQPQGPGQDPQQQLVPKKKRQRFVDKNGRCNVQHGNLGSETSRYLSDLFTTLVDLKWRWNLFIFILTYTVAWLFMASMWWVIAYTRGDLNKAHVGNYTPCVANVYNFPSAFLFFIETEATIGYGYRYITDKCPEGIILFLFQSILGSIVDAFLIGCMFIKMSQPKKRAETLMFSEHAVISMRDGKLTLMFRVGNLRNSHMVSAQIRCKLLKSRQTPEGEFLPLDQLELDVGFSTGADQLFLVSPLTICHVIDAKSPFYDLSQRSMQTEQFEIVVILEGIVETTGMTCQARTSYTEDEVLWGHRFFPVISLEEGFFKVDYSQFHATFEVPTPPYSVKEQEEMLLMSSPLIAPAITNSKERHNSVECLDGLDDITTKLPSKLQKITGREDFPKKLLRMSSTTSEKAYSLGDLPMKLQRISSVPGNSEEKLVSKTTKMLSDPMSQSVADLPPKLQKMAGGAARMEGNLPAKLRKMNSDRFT
T1 sequence (P48544 1-419): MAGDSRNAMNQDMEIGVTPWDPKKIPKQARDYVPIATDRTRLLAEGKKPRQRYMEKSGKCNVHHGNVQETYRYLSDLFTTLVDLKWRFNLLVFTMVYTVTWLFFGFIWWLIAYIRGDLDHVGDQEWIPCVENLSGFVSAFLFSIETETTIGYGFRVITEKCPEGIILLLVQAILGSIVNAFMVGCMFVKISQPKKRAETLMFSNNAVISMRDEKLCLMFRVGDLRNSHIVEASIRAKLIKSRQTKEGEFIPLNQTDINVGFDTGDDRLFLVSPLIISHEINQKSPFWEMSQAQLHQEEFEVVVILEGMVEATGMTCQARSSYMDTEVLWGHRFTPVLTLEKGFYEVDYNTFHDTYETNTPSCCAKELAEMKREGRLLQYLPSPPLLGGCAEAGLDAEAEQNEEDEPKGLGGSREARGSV

[2] = tested on: beagle dog; test: Therapeutic effect on verapamil-induced bradycardia in conscious beagle dog; assay type: in vivo; conditions: FIG. 10
Description: A peripheral venous path was secured with an 18 G needle in the right forelimb of a beagle dog (body weight: about 10 kg, female, available from Oriental Yeast Co., Ltd.), and then held on an operating table. Heart rate was monitored with an electrocardiographic monitor worn on the animal. A manchette was worn on the left forelimb, and blood pressure was measured with an Omron automatic electronic sphygmomanometer. The left ventricular function was measured by the M-mode method using the echocardiographic left parasternal short-axis two-chamber view. After stabilization of the heart rate, verapamil (intravenous injection of Vasolan, available from Eisai Co., Ltd.) was administered by continuous intravenous injection at a dose of 0.8 mg/kg/hour with a syringe pump. About 30 minutes after the initiation of administration, the dose was increased to 2.4 mg/kg/hour, and continuous infusion was continued. Since 2:1 atrioventricular block was continuously determined 17 minutes after an increase in the dose, the administration of verapamil was discontinued. Subsequently, saline and compound (I) dihydrochloride (0.01 mg/kg, 0.1 mg/kg, 1 mg/kg) were administered by bolus intravenous injection at 10-minute intervals. About 10 minutes after each administration, electrocardiogram, heart rate, blood pressure, and left ventricular function were measured and evaluated in a stable state. […]

## Cc1cc(CO)nc2cc3c(cc12)OC(C)(C)[C@H](O)[C@H]3NCCc1ccccc1 [Compound (I), (3R,4S)-7-Hydroxymethyl-2,2,9-trimethyl-4-(phenethylamino)-3,4-dihydro-2H-pyrano[2,3-g]quinoline-3-ol]
[1]
  KACh channel inhibitory action: has a KACh channel inhibitory action
[2]; 0.1 mg/kg bolus i.v.
  verapamil-induced bradyarrhythmia (2:1 atrioventricular block): exhibited a termination effect
[2]; compound (I) dihydrochloride 0.01, 0.1, 1 mg/kg bolus i.v. after verapamil infusion up to 2.4 mg/kg/hour
  verapamil-induced bradyarrhythmia (2:1 atrioventricular block): improved bradyarrhythmia; also recorded: recovery to 1:1 atrioventricular conduction
